Data published in US7741372B2, “Guanylhydrazones useful for treating diseases associated with T cell activation” (Cytokine PharmaSciences, Inc., priority 1996, dated 2010).

What was measured:
HIV-1 = conditions: AIDS patients; cited from earlier work
HIV 1-LAV = experiment: HIV replication in PHA-activated primary T cells, reverse transcriptase (RT) assay; format: cell-based
Experimental: (§1) Cell lysates were prepared for immunoprecipitation and immunoblotting 15 minutes after administration of LPS. In FIGS. 2B, 2C and 2D PHA-activated T cells were pretreated with control diluent or various concentrations of CNI-1493 for one hour, infected with HIV 1-LAV as in FIG. 1, and cultured for 10 days. FIG. 2B is a graph of dose-dependent inhibition by CNI-1493 of HIV-infection as assessed by the accumulation of reverse transcriptase (RT) at day 6 of culture. FIG. 2C is a graph of HIV inhibition by […] CNI-1493 over time. FIG. 2D is an immunoblot of phospho-p38 MAPK expression in HIV-1 infected cells on day 6 after culture treated with/without […] CNI-1493.
This example illustrates a role for the p38 MAP kinase pathway in HIV-1 infection of primary T cells, specifically addressing the hypothesis that activation of p38 MAPK is required for HIV-1 infection of primary T lymphocytes. For studies of human T cells, buffy coats were obtained by elutriation from normal human donors to the Long Island Blood Bank Services. Peripheral blood mononuclear cells (PBMC's) were isolated by density gradient centrifugation through Ficoll-Hypaque (Hypaque, Pharmacia). […]
Primary T cells activated with PHA were pretreated (or not) with CNI-1493 for one hour, infected with the LAV strain of HIV, and RT activity measured at various time points after infection, up to 10 days.

p38 MAP kinase = target: T1, p38 MAP kinase (Homo sapiens, UniProt Q16539); experiment: p38 MAP kinase activity (GST-ATF2 phosphorylation) in Jurkat cells stimulated with anti-CD3/anti-CD28; format: cell-based
T1 construct: Endogenous p38 was immunoprecipitated with polyclonal p38 antibody; endogenous in cells; host or cells: Jurkat cells (ATCC)
T1 sequence (Q16539 whole entry): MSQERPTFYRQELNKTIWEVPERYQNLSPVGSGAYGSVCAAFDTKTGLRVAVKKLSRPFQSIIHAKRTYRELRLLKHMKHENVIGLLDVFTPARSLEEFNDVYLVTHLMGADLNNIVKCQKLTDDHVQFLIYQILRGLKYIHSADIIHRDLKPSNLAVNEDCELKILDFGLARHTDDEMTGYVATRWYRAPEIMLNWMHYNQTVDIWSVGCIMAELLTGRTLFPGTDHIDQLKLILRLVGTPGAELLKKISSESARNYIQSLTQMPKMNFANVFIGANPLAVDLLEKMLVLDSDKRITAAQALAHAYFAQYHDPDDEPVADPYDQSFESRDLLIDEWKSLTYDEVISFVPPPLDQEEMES
Text: For studies of human T cells, buffy coats were obtained by elutriation from normal human donors to the Long Island Blood Bank Services. Peripheral blood mononuclear cells (PBMC's) were isolated by density gradient centrifugation through Ficoll-Hypaque (Hypaque. Pharmacia); typically one preparation yielded 200×10^6 cells. T cells were isolated by passing through a T cell column (R&D) as per manufacturer's instructions. Jurkat cells were obtained from ATCC and maintained in DMEM containing 10% heat-inactivated fetal bovine serum, antibiotics and L-glutamine.
A rabbit polyclonal antibody against p38, and the recombinant GST-AFT2 plasmid where a gift of Dr. Roger Davis (Howard Hughes Institute, Worcester, Mass.). A GST-AFT2 fusion protein was purified by affinity chromatography using glutatione-agarose, as per manufacturer's instructions (Pharmacia, Inc.). The human monoclonal anti-CD3 antibody was purchased from Pharmingen and a human monoclonal anti-CD28 antibody was purchased.
Whole cell lysates were prepared using kinase lysis buffer, containing a final concentration of 20 mM Tris pH 7.5, 10% glycerol, 1% Triton X-100, 0.137M NaCl, 25 mM B-glycerophosphate, 2 mM EDTA, 1 mM orthovanadate, 2 mM pyrophosphate, 10 μg/ml Leupeptin, 1 mM PMSF. Proteins were fractionated on a 12% SDS-PAGE gel, transferred by electrophoresis to PVDF membranes (Biorad, Inc.) and probed with a 1:1000 dilution of a rabbit polyclonal antibody that immunospecifically recognizes phosphorylated human p38 MAPK (Santa Cruz Biotechnology, Inc.). Binding to antibody was detected using enhanced chemiluminescence (Amersham International PLC).
2-5×10^6 cells were lysed after appropriate pretreatment in 500-1000 μl kinase lysis buffer and centrifuged at 14,000×g for 15 minutes at 4° C. Endogenous p38 was immunoprecipitated with polyclonal p38 antibody prebound to protein-A agarose for one hour at room temp. […]

p38 MAPK [1] = target: T2, p38 MAPK (Homo sapiens, UniProt Q16539); experiment: p38 MAPK activity in human PBMC's after addition of LPS; format: cell-based; conditions: human PBMC's pretreated with compound
T2 construct: endogenous in cells; host or cells: human PBMCs
T2 sequence (Q16539 whole entry): as above
Text: (§2) This example illustrates an experiment showing that an exemplary guanylhydrazone-substituted compound, CNI-1493 (N,N′-bis(3,5-diacetylphenyl)decanediamide tetrakis(amidinohydrazone) tetrahydrochloride) inhibited the p38 MAP kinase pathway. […] Further evidence for the mechanism of translation suppression was given by experiments using constructs in which the 5′UTR and the 3′UTR of TNF to drive expression of a reporter molecule. Both the 5′UTR and the 3′UTR regions of the TNF gene were required to elicit maximal translation suppression by CNI-1493. The effect of CNI-1493 on p38 MAPK was next determined as p38 MAPK has been implicated in the regulation of TNF translation.

TNF = TNF production by macrophages activated by LPS; format: cell-based
Text: as §2

MIP 1α and MIP 1β = experiment: MIP-1α and MIP-1β levels by sandwich ELISA in HIV 1-LAV infected primary T cells; format: cell-based, human
Experimental: Assays were done in triplicate and error bars represent standard deviation of the mean.
Because ideal anti-HIV therapies would not interfere with the ability of the host to mount its own defense, it was also evaluated whether inhibition of the p38 MAP kinase signal transduction pathway inhibits chemokine production in T cells. Levels of MIP 1α and MIP 1β during LAV infection of primary T cells were not decreased by CNI-1493 (FIG. 4). MIP 1α and 1β levels dropped slightly late in HIV-1 infection (day 9).

human T lymphocytes = experiment: T lymphocyte activation measured by IL-2 synthesis after a-CD3 and a-CD28 stimulation; format: cell-based; conditions: human T lymphocytes stimulated with a-CD3 and a CD28
Text: Without being limited by any theory regarding the mode of action of the multivalent guanylhydrazones, these compounds may work by disrupting the p38 MAPK pathway. p38 MAP kinase pathway plays a critical role in the activation of human T lymphocytes and this pathway is inhibited by the multivalent guanylhydrazone compounds. […] The activation of the p38 MAP kinase pathway was inhibited by the addition of a multivalent guanylhydrazone to the stimulated T lymphocytes. […] In addition, the assays of the present invention may include other in vivo assays to measure the effects of the test compounds on T cell activation. For example, test compounds may be assayed for their ability to inhibit activation of T cells. In such assays, test compounds may be added to T cells co-stimulated with a-CD3 and a-CD28. The stimulation of the T cells should result in the synthesis and secretion of cytokines, such as IL-2.

p38 MAPK [2] = experiment: phospho-p38 MAPK levels in HIV-1 infected T cells (immunoprecipitation/immunoblot); format: cell-based, human
Experimental: as §1
T cells were infected with HIV 1-LAV in the presence of […] 18-mer, refed every 3-4 days with media containing fresh oligomer and supernatants collected at various time points for RT assay. Simultaneously, cells were also plated, treated similarly and harvested for phospho-p38 MAPK levels assayed by immunoprecipitation at various time points as measured by RT assay. Shown in this figure is the effect of addition of sense and antisense p38 MAPK oligonucleotide on phospho-p38 levels and its correlation with HIV replication, as measured by RT.
Whole cell lysates were prepared using kinase lysis buffer containing a final concentration of 20 mM Tris pH 7.5, 10% glycerol, 1% Triton X-100, 0.137M NaCl, 25 mM B-glyceropliospliate. […]

[3] = 1 μM 18-mer, day 7 and day 10 after infection, FIG. 3

Compound: CC(C)c1nc(CN(C)C(=O)N[C@H](C(=O)N[C@@H](Cc2ccccc2)C[C@H](O)[C@H](Cc2ccccc2)NC(=O)OCc2cncs2)C(C)C)cs1 [ABT-538]
- CD4 lymphocyte counts (HIV-1): rise substantially
- plasma HIV-1 levels (HIV-1): decrease exponentially

Compound: CC(=NNC(=N)N)c1cc(NC(=O)CCCCCCCCC(=O)Nc2cc(C(C)=NNC(=N)N)cc(C(C)=NNC(=N)N)c2)cc(C(C)=NNC(=N)N)c1.Cl.Cl.Cl.Cl [CNI-1493, N,N′-bis(3,5-diacetylphenyl)decanediamide tetrakis(amidinohydrazone) tetrahydrochloride]
- IC50 (HIV 1-LAV; primary T cells activated with PHA, pretreated one hour, LAV strain of HIV, RT activity, FIG. 2B, read-out: IC50 of inhibition of HIV replication in T-cells): ~500 nM
- effect on anti-CD3 stimulated p38 MAPK activity (p38 MAP kinase; anti-CD3 alone): unaffected
- inhibition of stimulated p38 MAPK activity (p38 MAP kinase; anti-CD28 stimulation (as worded: stimulation of p38 MAPK), dose of 1.5 μM): approximately 50%
- inhibition of p38 MAPK activity on co-stimulation with anti-CD3 and anti-CD28 (p38 MAP kinase; dose of 1.5 μM): inhibited completely
- p38 MAPK activity after the addition of LPS (p38 MAPK [1]): suppression of p38 MAPK activity
- TNF production by macrophages activated by LPS (TNF): inhibit TNF production
- synthesis of 26 kDA membrane form of TNF (TNF): blocked the synthesis
- level of MIP 1α during LAV infection of primary T cells (MIP 1α and MIP 1β; FIG. 4): not decreased
- level of MIP 1β during LAV infection of primary T cells (MIP 1α and MIP 1β; FIG. 4): not decreased
- chemokine levels (MIP 1α and 1β) day 6 (MIP 1α and MIP 1β; day 6 of HIV-1 infection): slightly elevated
- chemokine levels (MIP 1α and 1β) day 9 (MIP 1α and MIP 1β; day 9 of HIV-1 infection): normal
- activation of T lymphocytes as measured by IL-2 synthesis (human T lymphocytes): inhibition of activation of the T lymphocytes
- p38 MAP kinase activity in HIV-infected T cells (p38 MAPK [2]; 1 μM, FIGS. 2C, 2D): suppression of p38 MAP kinase activity

Compound: p38 MAP kinase antisense oligonucleotides: 18-mer phosphothiorate oligonucleotide, antisense to bp 324-341 of human p38 MAPK, 5′GTCTTGTTCAGCTCCTGC3′
- HIV replication as measured by RT (HIV 1-LAV; [3]): decreased HIV replication
- phospho-p38 MAPK activity (p38 MAPK [2]; [3]): decrease in phospho-p38 MAPK activity
